Literature values, collected in patent publication US20110020841A1, “CENTROSOME AMPLIFICATION AS A BIOSENSOR FOR DNA DAMAGE” (National University of Ireland, Galway, priority 2006, published 2011).

Test system: Chk1 kinase
Conditions: inhibition of Chk1 kinase with the drug; vertebrate cells; reference 11

## CN[C@@H]1C[C@H]2O[C@@](C)([C@@H]1OC)n1c3ccccc3c3c4c(c5c6ccccc6n2c5c31)C(=O)N[C@@H]4O [UCN-01]
  DNA damage-induced centrosome amplification: suppresses DNA damage-centrosome amplification
